Laboratory results as given in patent US20020137929A1, “1 - (3-heterocyclylphenyl) isothiourea, -isourea, -guanidine and -amidine herbicidal agents” (Intellectual Property Department, BASF Aktiengesellschaft, priority 1998, published 2002).

Experiments:
GALAP (Galium) = assay: Postemergence herbicidal evaluation; assay type: in vivo, Galium aparine; conditions: postemergence
Outline: (§1)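 Visual 0-9 injury score (stand, vigor, malformation, size, chlorosis, appearance vs untreated) taken four to five weeks post-spray, averaged across repeat tests. Test plants about two weeks old; foliar spray of acetone/water (1:1) with 0.5% surfactant delivering ~0.0156-0.500 kg active/ha.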

SETVI (Foxtail, Green) [1] = assay: Postemergence herbicidal evaluation; assay type: in vivo, Setaria viridis; conditions: postemergence
Outline: as §1

[2] = test system: TRZAWR (Wheat, Winter, cv Riband); assay: Postemergence herbicidal evaluation; assay type: in vivo, Triticum aestivum; conditions: postemergence
Outline: as §1

ABUTH (Velvetleaf) = assay: Preemergence herbicidal evaluation; assay type: in vivo, Abutilon theophrasti; conditions: rated 4-5 weeks after treatment
Outline: (§2)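 Sown cups got a single aqueous acetone spray of test compound (roughly 0.0156–0.500 kg/ha) before seedlings emerged. Evaluation, 4–5 weeks on, used a 0–9 visual scale covering plant stand, vigor, size, malformation, chlorosis and general appearance compared with controls.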

ECHCG (Barnyardgrass) = assay: Preemergence herbicidal evaluation; assay type: in vivo, Echinochloa crus-galli; conditions: rated 4-5 weeks after treatment
Outline: as §2

SETVI (Foxtail, Green) [3] = assay: Preemergence herbicidal evaluation; assay type: in vivo, Setaria viridis; conditions: rated 4-5 weeks after treatment
Outline: as §2

ZEAMX (Corn, Field) = assay: Preemergence herbicidal evaluation; assay type: in vivo, Zea mays; conditions: rated 4-5 weeks after treatment
Outline: as §2

[4] = test system: ECHORC (Watergrass (Calif.)); assay: Preemergence weed control under flooded paddy conditions; assay type: in vivo, Echinochloa oryzoides; conditions: rated 3-4 weeks after treatment
Outline: (§3)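 First, seeds or propagules go into the top 0.5 cm of silt loam; next, water is held 1.5 to 3 cm over the soil; then compound (50/50 acetone/water) is pipetted into it at about 0.0313 to 0.500 kg/ha; finally plants are rated visually 0-9 after three to four weeks.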

CYPIR (Rice Flatsedge) = assay: as above; assay type: in vivo, Cyperus iria; conditions: rated 3-4 weeks after treatment
Outline: as §3

MOOVA (Monochoria) = assay: as above; assay type: in vivo, Monochoria vaginalis; conditions: rated 3-4 weeks after treatment
Outline: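 Ratings on a 0-9 visual scale cover stand, vigor, malformation, size, chlorosis and overall appearance relative to a control, taken three to four weeks post-treatment. Application was into flood water over freshly sown silt loam at roughly 0.0313 to 0.500 kg/ha.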

[5] = test system: ECHORC (Watergrass (Calif.)); assay: Postemergence weed control under flooded paddy conditions; assay type: in vivo, Echinochloa oryzoides; conditions: postemergence weeds, 3-4 weeks after treatment
Outline: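 Injury ratings (0–9 scale covering stand, vigor, malformation, size, chlorosis and overall appearance versus control) were made three to four weeks after treatment. Test material, about 0.0313 to 0.500 kg/ha a.i. in 50/50 v/v aqueous/acetone, was added to flood water 1.5 to 3 cm deep over 3 to 5 cm weeds and 1.5 to 2.5 leaf rice.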

[6] = test system: SAGPY (Arrowhead (Pygmaea)); assay: as above; assay type: in vivo, Sagittaria pygmaea; conditions: postemergence weeds, 3-4 weeks after treatment
Excerpt: Results of herbicide evaluation are expressed on a rating scale (0-9). The scale is based upon a visual observation of plant stand, vigor, malformation, size, chlorosis and overall plant appearance as compared with a control.
Plastic containers containing weeds which are 3 to 5 cm tall and rice seedlings at the 1.5 to 2.5 leaf stage are flooded with water. The water is maintained at 1.5 to 3 cm above the soil surface for the duration of the experiment. Test compounds are applied as aqueous/ acetone mixtures 50/50 v/v directly into the flood water to provide the equivalent of about 0.0313 to 0.500 kg/ha of active ingredient. The treated containers are placed on greenhouse benches and cared for in accordance with conventional greenhouse procedures. Three to four weeks after treatment, the test is terminated and each container is examined and herbicidal effect rated according to the rating system provided in Example 37. The compounds evaluated are reported by compound number given in Example 37.

## O=C1CSC(=Nc2cc(N3C(=O)C4=C(CCCC4)C3=O)c(F)cc2Cl)N1c1ccccc1 [Compound 3, N-{4-chloro-2-fluoro-5-[(4-oxo-3-phenyl-2-thiazolidinylidene)amino]phenyl}-1-cyclohexene-1,2-dicarboximide]
GALAP (Galium); rate 0.0157 kg/ha
  GALAP herbicidal rating: 9.0
GALAP (Galium); rate 0.0313 kg/ha
  GALAP herbicidal rating: 2.0
GALAP (Galium); rate 0.0625 kg/ha
  GALAP herbicidal rating: 4.0
GALAP (Galium); rate 0.1250 kg/ha
  GALAP herbicidal rating: 4.0
GALAP (Galium); rate 0.2500 kg/ha
  GALAP herbicidal rating: 6.0
GALAP (Galium); rate 0.5000 kg/ha
  GALAP herbicidal rating: 9.0
SETVI (Foxtail, Green) [1]; rate 0.0157 kg/ha
  SETVI herbicidal rating: 0.0
SETVI (Foxtail, Green) [1]; rate 0.0313 kg/ha
  SETVI herbicidal rating: 0.0
SETVI (Foxtail, Green) [1]; rate 0.0625 kg/ha
  SETVI herbicidal rating: 0.0
SETVI (Foxtail, Green) [1]; rate 0.1250 kg/ha
  SETVI herbicidal rating: 0.0
SETVI (Foxtail, Green) [1]; rate 0.2500 kg/ha
  SETVI herbicidal rating: 0.0
SETVI (Foxtail, Green) [1]; rate 0.5000 kg/ha
  SETVI herbicidal rating: 0.0
[2]; rate 0.0157 kg/ha
  TRZAWR herbicidal rating: 2.5
[2]; rate 0.0313 kg/ha
  TRZAWR herbicidal rating: 2.5
[2]; rate 0.0625 kg/ha
  TRZAWR herbicidal rating: 3.0
[2]; rate 0.1250 kg/ha
  TRZAWR herbicidal rating: 2.5
[2]; rate 0.2500 kg/ha
  TRZAWR herbicidal rating: 3.0
[2]; rate 0.5000 kg/ha
  TRZAWR herbicidal rating: 4.0
ABUTH (Velvetleaf); rate 0.0625 kg/ha
  ABUTH preemergence herbicidal rating: 2.0
ABUTH (Velvetleaf); rate 0.1250 kg/ha
  ABUTH preemergence herbicidal rating: 2.0
ABUTH (Velvetleaf); rate 0.2500 kg/ha
  ABUTH preemergence herbicidal rating: 0.0
ABUTH (Velvetleaf); rate 0.5000 kg/ha
  ABUTH preemergence herbicidal rating: 6.0
ECHCG (Barnyardgrass); rate 0.0313 kg/ha
  ECHCG preemergence herbicidal rating: 0.0
ECHCG (Barnyardgrass); rate 0.0625 kg/ha
  ECHCG preemergence herbicidal rating: 0.0
ECHCG (Barnyardgrass); rate 0.1250 kg/ha
  ECHCG preemergence herbicidal rating: 2.0
ECHCG (Barnyardgrass); rate 0.2500 kg/ha
  ECHCG preemergence herbicidal rating: 4.0
ECHCG (Barnyardgrass); rate 0.5000 kg/ha
  ECHCG preemergence herbicidal rating: 6.0
SETVI (Foxtail, Green) [3]; rate 0.0313 kg/ha
  SETVI preemergence herbicidal rating: 0.0
SETVI (Foxtail, Green) [3]; rate 0.0625 kg/ha
  SETVI preemergence herbicidal rating: 4.0
SETVI (Foxtail, Green) [3]; rate 0.1250 kg/ha
  SETVI preemergence herbicidal rating: 4.0
SETVI (Foxtail, Green) [3]; rate 0.2500 kg/ha
  SETVI preemergence herbicidal rating: 4.0
SETVI (Foxtail, Green) [3]; rate 0.5000 kg/ha
  SETVI preemergence herbicidal rating: 9.0
ZEAMX (Corn, Field); rate 0.0313 kg/ha
  ZEAMX preemergence herbicidal rating: 0.0
ZEAMX (Corn, Field); rate 0.0625 kg/ha
  ZEAMX preemergence herbicidal rating: 0.0
ZEAMX (Corn, Field); rate 0.1250 kg/ha
  ZEAMX preemergence herbicidal rating: 1.0
ZEAMX (Corn, Field); rate 0.2500 kg/ha
  ZEAMX preemergence herbicidal rating: 2.0
ZEAMX (Corn, Field); rate 0.5000 kg/ha
  ZEAMX preemergence herbicidal rating: 4.0
[4]; 0.0625 kg/ha
  Herbicidal rating ECHORC: 0.0
[4]; 0.1250 kg/ha
  Herbicidal rating ECHORC: 0.0
[4]; 0.2500 kg/ha
  Herbicidal rating ECHORC: 2.0
[4]; 0.5000 kg/ha
  Herbicidal rating ECHORC: 4.0
CYPIR (Rice Flatsedge); 0.0625 kg/ha
  Herbicidal rating CYPIR: 0.0
CYPIR (Rice Flatsedge); 0.1250 kg/ha
  Herbicidal rating CYPIR: 0.0
CYPIR (Rice Flatsedge); 0.2500 kg/ha
  Herbicidal rating CYPIR: 0.0
CYPIR (Rice Flatsedge); 0.5000 kg/ha
  Herbicidal rating CYPIR: 0.0
MOOVA (Monochoria); 0.0625 kg/ha
  Herbicidal rating MOOVA: 2.0
MOOVA (Monochoria); 0.1250 kg/ha
  Herbicidal rating MOOVA: 9.0
MOOVA (Monochoria); 0.2500 kg/ha
  Herbicidal rating MOOVA: 9.0
MOOVA (Monochoria); 0.5000 kg/ha
  Herbicidal rating MOOVA: 9.0
[5]; rate 0.0625 kg/ha
  Herbicidal rating ECHORC: 0.0
[5]; rate 0.1250 kg/ha
  Herbicidal rating ECHORC: 0.0
[5]; rate 0.2500 kg/ha
  Herbicidal rating ECHORC: 1.0
[5]; rate 0.5000 kg/ha
  Herbicidal rating ECHORC: 2.0
[6]; rate 0.0625 kg/ha
  Herbicidal rating SAGPY: 0.0
[6]; rate 0.1250 kg/ha
  Herbicidal rating SAGPY: 0.0
[6]; rate 0.2500 kg/ha
  Herbicidal rating SAGPY: 0.0
[6]; rate 0.5000 kg/ha
  Herbicidal rating SAGPY: 0.0
